In patent US4929542A, “In vitro screening test for mutagenicity and genotoxicity during spermatogenesis” (Cornell Research Foundation, Inc., priority 1987, dated 1990):
Where two headings read alike, the source gives them in different places.

How the values were obtained:
[1] = tested on: Xenopus laevis testis explants (round spermatids); test: In vitro spermatid micronucleus assay (percent round spermatids with micronuclei in cultured testis explants); settings: for relative in vitro clastogenic potency: day 30 micronucleus counts vs product of mutagen dose and exposure time (FIG. 7)
[2] = tested on: chromosome aberrations, meiotic prophase; settings: male mouse; cited from earlier work

Structure (SMILES): COc1cccc2c1C(=O)c1c(O)c3c(c(O)c1C2=O)C[C@@](O)(C(=O)CO)C[C@@H]3O[C@H]1C[C@H](N)[C@H](O)[C@H](C)O1 [AD, adriamycin]
- concentration at which assay was sensitive to clastogenesis ([1]; AD, 4 hr exposure, day 22, = 0.58 mg/L): 10^-6 M
- concentration at which assay was sensitive to clastogenesis ([1]; AD, 4 hr exposure, day 30, = 58 μg/L): 10^-7 M
- increase in spermatid micronuclei ([1]; AD, 4 hr exposure, days 22 and 30, unmodified XSCM (Table 6)): dose-dependent increase in spermatid micronuclei on both days 22 and 30
- spermatocyte stages most sensitive to clastogenesis ([1]; AD, 4 hrs exposure (Table 5)): leptotene (day 23) and premeiotic S or type B spermatogonia (day 30)
- increase in spermatid micronuclei ([1]; AD, 4 hrs exposure, each time point (Table 5)): dose-dependent increases in spermatid micronuclei at each time point examined
- increase in assay sensitivity on increasing exposure ([1]; AD, exposure increased from 4 hrs. to 12 hrs.): 1.7 fold

Structure (SMILES): O=P1(N(CCCl)CCCl)NCCCO1 (stereo not shown) [CP, cyclophosphamide]
- Micronucleus % [1]: .15 +/- .06%
- induction of spermatid micronuclei relative to concurrent controls [1]: did not result in a significant induction of spermatid micronuclei
- Percent Round Spermatids With Micronuclei ([1]; CP 10^-4 moles/L, 24 hr incubation, post-CP culture Day 2): .30 +/- .14%
- Percent Round Spermatids With Micronuclei ([1]; CP 10^-4 moles/L, 24 hr incubation, post-CP culture Day 5): .29 +/- .14%
- Percent Round Spermatids With Micronuclei ([1]; CP 10^-4 moles/L, 24 hr incubation, post-CP culture Day 8): .29 +/- .13%
- Percent Round Spermatids With Micronuclei ([1]; CP 10^-4 moles/L, 24 hr incubation, post-CP culture Day 21): .25 +/- .07%
- Percent Round Spermatids With Micronuclei ([1]; CP 10^-4 moles/L, 24 hr incubation, post-CP culture Day 29, p < .001): 2.70 +/- .13%
- Micronucleus % ([1]; CP 10^-4 moles/L, 72 hr incubation, cultured 6 days after): .27 +/- .11%
- Percent Round Spermatids With Micronuclei ([1]; CP 10^-5 moles/L, 24 hr incubation, post-CP culture Day 2): .20 +/- .01%
- Percent Round Spermatids With Micronuclei ([1]; CP 10^-5 moles/L, 24 hr incubation, post-CP culture Day 5): .19 +/- .01%
- Percent Round Spermatids With Micronuclei ([1]; CP 10^-5 moles/L, 24 hr incubation, post-CP culture Day 8): .29 +/- .14%
- Percent Round Spermatids With Micronuclei ([1]; CP 10^-5 moles/L, 24 hr incubation, post-CP culture Day 15): .38 +/- .26%
- Percent Round Spermatids With Micronuclei ([1]; CP 10^-5 moles/L, 24 hr incubation, post-CP culture Day 21): .41 +/- .16%
- Percent Round Spermatids With Micronuclei ([1]; CP 10^-5 moles/L, 24 hr incubation, post-CP culture Day 29, P < .01): 1.90 +/- .43%
- Micronucleus % ([1]; CP 10^-5 moles/L, 72 hr incubation, cultured 6 days after): .19 +/- .01%
- Percent Round Spermatids With Micronuclei ([1]; CP 10^-6 moles/L, 24 hr incubation, post-CP culture Day 2): .37 +/- .28%
- Percent Round Spermatids With Micronuclei ([1]; CP 10^-6 moles/L, 24 hr incubation, post-CP culture Day 5): .37 +/- .29%
- Percent Round Spermatids With Micronuclei ([1]; CP 10^-6 moles/L, 24 hr incubation, post-CP culture Day 8): .15 +/- .06%
- Percent Round Spermatids With Micronuclei ([1]; CP 10^-6 moles/L, 24 hr incubation, post-CP culture Day 15): .49 +/- .13%
- Percent Round Spermatids With Micronuclei ([1]; CP 10^-6 moles/L, 24 hr incubation, post-CP culture Day 21): .35 +/- .07%
- Percent Round Spermatids With Micronuclei ([1]; CP 10^-6 moles/L, 24 hr incubation, post-CP culture Day 29, p < .05): .99 +/- .01%
- Micronucleus % ([1]; CP 10^-6 moles/L, 72 hr incubation, cultured 6 days after): .14 +/- .06%
- induction of spermatid micronuclei ([1]; CP, 24 hr incubation, 29 days after exposure): dose-dependent increase in spermatid micronuclei
- lowest effective dose (spermatid micronuclei) ([1]; CP, 24 hr incubation, 29 days after exposure, = […]): 10^-6 M
- increase in micronuclei in spermatids from pachytene through diplotene stages ([1]; CP, 72 hr incubation, 6 days culture): did not result in significant increases in micronuclei
- stage restriction of clastogenesis ([1]; CP, cultured testes): restriction of CP clastogenesis to premeiotic stages
- stage of cells affected (aberrations) ([1]; CP, in vitro exposure of testis explants): induces aberrations in cells that require 24 to 30 days to develop into round spermatids
- relative in vitro clastogenic potency [1]: AD>CP>DMBA
- induction of chromosome aberrations [2]: induction of chromosome aberrations throughout meiotic prophase

Structure (SMILES): Cc1c2ccccc2c(C)c2c1ccc1ccccc12 [DMBA, 9,10-dimethyl-1,2-benzanthracene]
- Percent Round Spermatids With Micronuclei ([1]; DMBA 10^-4 moles/L, 24 hr incubation, post-DMBA culture Day 2): .16 +/- .04%
- Percent Round Spermatids With Micronuclei ([1]; DMBA 10^-4 moles/L, 24 hr incubation, post-DMBA culture Day 5): .15 +/- .06%
- Percent Round Spermatids With Micronuclei ([1]; DMBA 10^-4 moles/L, 24 hr incubation, post-DMBA culture Day 8): .17 +/- .05%
- Percent Round Spermatids With Micronuclei ([1]; DMBA 10^-4 moles/L, 24 hr incubation, post-DMBA culture Day 15): .48 +/- .12%
- Percent Round Spermatids With Micronuclei ([1]; DMBA 10^-4 moles/L, 24 hr incubation, post-DMBA culture Day 22): .28 +/- .12%
- Percent Round Spermatids With Micronuclei ([1]; DMBA 10^-4 moles/L, 24 hr incubation, post-DMBA culture Day 29, p < .001): 1.07 +/- .14%
- fold increase in spermatid micronucleus frequency, 72 hr relative to 24 hr incubation ([1]; DMBA 10^-5 M (2.6 mg/L), culture day 30): 3 fold
- Percent Round Spermatids With Micronuclei ([1]; DMBA 10^-5 moles/L, 24 hr incubation, post-DMBA culture Day 2): .19 +/- .01%
- Percent Round Spermatids With Micronuclei ([1]; DMBA 10^-5 moles/L, 24 hr incubation, post-DMBA culture Day 5): .16 +/- .06%
- Percent Round Spermatids With Micronuclei ([1]; DMBA 10^-5 moles/L, 24 hr incubation, post-DMBA culture Day 8): .39 +/- .28%
- Percent Round Spermatids With Micronuclei ([1]; DMBA 10^-5 moles/L, 24 hr incubation, post-DMBA culture Day 15): .20 +/- .001%
- Percent Round Spermatids With Micronuclei ([1]; DMBA 10^-5 moles/L, 24 hr incubation, post-DMBA culture Day 22): .48 +/- .13%
- Percent Round Spermatids With Micronuclei ([1]; DMBA 10^-5 moles/L, 24 hr incubation, post-DMBA culture Day 29, p < .01): .83 +/- .06%
- Percent Round Spermatids With Micronuclei ([1]; DMBA 10^-6 moles/L, 24 hr incubation, post-DMBA culture Day 2): .28 +/- .13%
- Percent Round Spermatids With Micronuclei ([1]; DMBA 10^-6 moles/L, 24 hr incubation, post-DMBA culture Day 5): .15 +/- .06%
- Percent Round Spermatids With Micronuclei ([1]; DMBA 10^-6 moles/L, 24 hr incubation, post-DMBA culture Day 8): .16 +/- .06%
- Percent Round Spermatids With Micronuclei ([1]; DMBA 10^-6 moles/L, 24 hr incubation, post-DMBA culture Day 15): .39 +/- .01%
- Percent Round Spermatids With Micronuclei ([1]; DMBA 10^-6 moles/L, 24 hr incubation, post-DMBA culture Day 22): .30 +/- .14%
- Percent Round Spermatids With Micronuclei ([1]; DMBA 10^-6 moles/L, 24 hr incubation, post-DMBA culture Day 29, p < .05): .68 +/- .01%
- Percent Round Spermatids With Micronuclei ([1]; DMBA 10^-7 moles/L, 24 hr incubation, 0.1% DMSO, post-DMBA culture Day 2, mean +/- s.d., n=2): .29 +/- .14%
- Percent Round Spermatids With Micronuclei ([1]; DMBA 10^-7 moles/L, 24 hr incubation, post-DMBA culture Day 5): .16 +/- .06%
- Percent Round Spermatids With Micronuclei ([1]; DMBA 10^-7 moles/L, 24 hr incubation, post-DMBA culture Day 8): .21 +/- .02%
- Percent Round Spermatids With Micronuclei ([1]; DMBA 10^-7 moles/L, 24 hr incubation, post-DMBA culture Day 15): .28 +/- .13%
- Percent Round Spermatids With Micronuclei ([1]; DMBA 10^-7 moles/L, 24 hr incubation, post-DMBA culture Day 22): .19 +/- .02%
- Percent Round Spermatids With Micronuclei ([1]; DMBA 10^-7 moles/L, 24 hr incubation, post-DMBA culture Day 29): .36 +/- .05%
- increase in spermatid micronucleus frequency ([1]; DMBA, 24 hr exposure): dose-dependent increase in the spermatid micronucleus frequency only after 29 additional days of culture
- Percent Round Spermatids With Micronuclei ([1]; Table 4: DMBA 10^-5 moles/L, 24 hr incubation, subsequent culture 29 days, P < .05): .86 +/- .10%
- Percent Round Spermatids With Micronuclei ([1]; Table 4: DMBA 10^-5 moles/L, 72 hr incubation, subsequent culture 27 days, P < .001): 2.52 +/- .44%
- relative in vitro clastogenic potency [1]: AD>CP>DMBA
